Test results: patent US4533554A, “Quinone derivatives and use” (Takeda Chemical Industries, Ltd., priority 1979, dated 1985)

Assays:
[1] = system: SRS-A (slow reacting substance of anaphylaxis) production and release; assay: Inhibitory effect on SRS-A (slow reacting substance of anaphylaxis) production and release in sensitised guinea-pig lung fragments; type: cell-based; details: guinea-pig lung fragments sensitised with egg albumin
Method: The inhibitory effect on SRS-A production and release was examined by the method of Orange and Moore (J. Immunol., 116, 392-397, 1976). Quinone derivatives were added to guinea-pig lung fragments sensitised with egg albumin as the antigen, and the amount of SRS-A produced and released as a consequence was assayed by the method of Brocklehust (J. Physiol., 151, 416-435, 1960).

[2] = system: SHR (spontaneously hypertensive rats); assay: Blood-pressure reducing action in SHR (spontaneously hypertensive rats); type: in vivo, rat; details: oral, L-methyldopa 40 mg/kg, test compound equimolar amount
Method: The blood-pressure reducing action of the compounds obtained in the above-mentioned Examples was confirmed with the use of SHR (spontaneously hypertensive rats) in accordance with the method of Watson and Ludden (L. S. Watson & C. T. Ludden in "New Antihypertensive Drugs", A. Scriabin and C. S. Sweet, Ed., Spectrum Publications, New York, 1976, page 87). As a control compound, L-methyldopa was orally administered in a dose of 40 mg/kg, while an equimolar amount of a test compound was orally given, to examine the effect. Results are shown in Table 8, where the marks, (+++), (++), (+) and (±), indicate the blood-pressure reducing actions of 31 to 40 mmHg, 21 to 30 mmHg, 11 to 20 mmHg and not more than 10 mmHg, respectively.

[3] = system: mortal activity of arachidonic acid in mouse; assay: Suppression of mortal activity of arachidonic acid in mouse; type: in vivo; details: 300 mg/kg oral, 1 hour before arachidonic acid 60 mg/kg i.v., male JCL:ICR mice, read-out: Number of survival mice/Total number of mice (converted)
Method: Male mice (four weeks old, JCL:ICR) were used in this experimental. Quinone derivatives were suspended with arabin to administrate per OS. After one hour of the oral administration at a dose of 300 mg/kg of a quinone derivative, an aqueous solution of arachidonic acid (20 mg/ml, pH 8.8) was intravenously administrated at dose of 60 mg/kg of arachidonic acid from mouse tail vein. The suppressive effects were shown in Table 10 by the ratio of the number of survival mice to the total number of mice administrated the test compound.

Compound | Blood-pressure reducing action [2] | responders at 300 mg/kg [3] | other results
CC1=C(C)C(=O)C(C/C=C(\C)CC/C=C(\C)CCC(=O)O)=C(C)C1=O [IIa-7] |  |  | inhibition at 10 µM ([1]; Cavia porcellus, 10 μM): 40.2 ± 7.3%
COC1=C(OC)C(=O)C(C/C=C(\C)CC/C=C(\C)CC/C=C(\C)CC/C=C(\C)CC/C=C(\C)CC/C=C(\C)CC/C=C(\C)CC/C=C(\C)CC/C=C(\C)CC/C=C(\C)CCC(=O)O)=C(C)C1=O [IIa-15] | ++ (21 to 30 mmHg) |  | 
CC1=C(C/C=C(\C)CC/C=C(\C)CC/C=C(\C)CCC(=O)O)C(=O)c2ccccc2C1=O [IIa-4] | +++ (31 to 40 mmHg) |  | inhibition at 1 µM ([1]; Cavia porcellus): 24.3 ± 4.2%
COC1=C(OC)C(=O)C(C/C=C(\C)CCC(=O)N2CCN(C/C=C(\C)CC/C=C(\C)CCC=C(C)C)CC2)=C(C)C1=O [Ia-3] |  | 40% | 
COC1=C(OC)C(=O)C(C/C=C(\C)CC/C=C(\C)CCC(=O)OC/C=C(\C)CC/C=C(\C)CCC=C(C)C)=C(C)C1=O [IIa-16] | ++ (21 to 30 mmHg) |  | 
C[C@](N)(Cc1ccc(O)c(O)c1)C(=O)O [L-Methyldopa, reference compound] | +++ (31 to 40 mmHg) |  | 
CC1=C(C)C(=O)C(C/C=C(\C)CC/C=C(\C)CC/C=C(\C)CC/C=C(\C)CCC(=O)O)=C(C)C1=O [IIa-9] | ++ (21 to 30 mmHg) |  | 
COC1=C(OC)C(=O)C(C/C=C(\C)CC/C=C(\C)CCC(N)=O)=C(C)C1=O [Ia-7] |  | 40% | 
COC1=C(OC)C(=O)C(C/C=C(\C)CC/C=C(\C)CCC(=O)N(C(=O)NC2CCCCC2)C2CCCCC2)=C(C)C1=O [Ia-48] |  | 40% | 
Sodium baikalein phosphate [BSP, reference compound] |  |  | Inhibitory Effect on SRS-A Production (% inhibition of production and release) ([1]; 10 μM): 18.7 ± 6.6%; Inhibitory Effect on SRS-A Production (% inhibition of production and release) ([1]; 100 μM): 50.8 ± 10.7%
CC1=C(C/C=C(\C)CC/C=C(\C)CCC(=O)O)C(=O)c2ccccc2C1=O [IIa-3] | +++ (31 to 40 mmHg) | 40% | inhibition at 10 µM ([1]; Cavia porcellus, 10 μM): 38.6 ± 4.3%
COc1cc(CN2CCN(C(=O)CC/C(C)=C/CC/C(C)=C/CC/C(C)=C/CC3=C(C)C(=O)c4ccccc4C3=O)CC2)cc(OC)c1OC [Ia-28] |  | 100% | 
COC1=C(OC)C(=O)C(C/C=C(\C)CC/C=C(\C)CCC(=O)N2CCN(Cc3cc(OC)c(OC)c(OC)c3)CC2)=C(C)C1=O [Ia-6] |  | 40% | inhibition at 1 µM ([1]; Cavia porcellus): 26.8 ± 2.2%
COC1=C(OC)C(=O)C(C/C=C(\C)CC/C=C(\C)CC/C=C(\C)CCC(=O)N2CCN(Cc3ccc4c(c3)OCO4)CC2)=C(C)C1=O [Ia-11] |  | 80% | inhibition at 1 µM ([1]; Cavia porcellus): 15 ± 5.6%
COC1=C(OC)C(=O)C(C/C=C(\C)CC/C=C(\C)CCC(=O)N2CCOCC2)=C(C)C1=O [Ia-9] |  | 40% | 
CC1=C(C/C=C(\C)CC/C=C(\C)CC/C=C(\C)CC/C=C(\C)CCC(=O)O)C(=O)c2ccccc2C1=O [IIa-5] | +++ (31 to 40 mmHg) |  | 
CC(C)=CCC/C(C)=C/CC/C(C)=C/COC(=O)CC/C(C)=C/CC/C(C)=C/CC1=C(C)C(=O)c2ccccc2C1=O [IIa-21] | ++ (21 to 30 mmHg) |  | 
COC1=C(OC)C(=O)C(C/C=C(\C)CC/C=C(\C)CC/C=C(\C)CC/C=C(\C)CCC(=O)O)=C(C)C1=O [IIa-13] | ++ (21 to 30 mmHg) |  | 
CC(C)=CCC/C(C)=C/COC(=O)CC/C(C)=C/CC/C(C)=C/CC1=C(C)C(=O)c2ccccc2C1=O [IIa-20] | ++ (21 to 30 mmHg) |  | 
COC1=C(OC)C(=O)C(C/C=C(\C)CC/C=C(\C)CC/C=C(\C)CC/C=C(\C)CC/C=C(\C)CC/C=C(\C)CC/C=C(\C)CCC(=O)O)=C(C)C1=O [IIa-14] | ++ (21 to 30 mmHg) |  | 
COC1=C(OC)C(=O)C(C/C=C(\C)CC/C=C(\C)CC/C=C(\C)CCC(=O)O)=C(C)C1=O [IIa-12] | ++ (21 to 30 mmHg) |  | inhibition at 1 µM ([1]; Cavia porcellus): 21.8 ± 8.5%
COC1=C(OC)C(=O)C(C/C=C(\C)CC/C=C(\C)CCC(=O)OC/C=C(\C)CCC=C(C)C)=C(C)C1=O [IIa-19] | ++ (21 to 30 mmHg) |  | 
NC1=NN(c2cccc(C(F)(F)F)c2)CC1 [BW-755c, reference compound] |  |  | inhibition at 10 µM ([1]; Cavia porcellus, 10 μM): 4.7 ± 3.7%; inhibition at 100 µM ([1]; Cavia porcellus, 100 μM): 15.3 ± 4.3%
COC1=C(OC)C(=O)C(C/C=C(\C)CC/C=C(\C)CCC(=O)O)=C(C)C1=O [IIa-10] |  |  | inhibition at 1 µM ([1]; Cavia porcellus): 35 ± 6.3%
